Converted amounts (≈) assume the structure as drawn.
How the values were obtained:
[1] = test system: Agrobacterium tumefaction; assay: Anti-bacterial activity, agar well diffusion; format: cell-based; conditions: for MIC: read-out: MIC, Agrobacterium tumefaction; for zone of inhibition at 10 µg/mL / zone of inhibition at 20 µg/mL / zone of inhibition at 30 µg/mL: read-out: ZI (Zone of inhibition), Agrobacterium tumefaction
[2] = ABTS free radical scavenging
Proteus vulgaris = assay: Anti-bacterial activity, agar well diffusion; format: cell-based; conditions: for MIC: read-out: MIC, Proteus vulgaris; for zone of inhibition at 10 µg/mL / zone of inhibition at 20 µg/mL / zone of inhibition at 30 µg/mL: read-out: ZI (Zone of inhibition), Proteus vulgaris
Butyrylcholinesterase = Butyrylcholinesterase (Homo sapiens, UniProt P06276); assay: Anticholinesterase assay; format: biochemical; conditions: for inhibition at 125 µg/mL / inhibition at 250 µg/mL / inhibition at 500 µg/mL / inhibition at 1000 µg/mL: read-out: %BChE Inhibition (mean ± SEM)
Chain of Butyrylcholinesterase (P06276 29-602): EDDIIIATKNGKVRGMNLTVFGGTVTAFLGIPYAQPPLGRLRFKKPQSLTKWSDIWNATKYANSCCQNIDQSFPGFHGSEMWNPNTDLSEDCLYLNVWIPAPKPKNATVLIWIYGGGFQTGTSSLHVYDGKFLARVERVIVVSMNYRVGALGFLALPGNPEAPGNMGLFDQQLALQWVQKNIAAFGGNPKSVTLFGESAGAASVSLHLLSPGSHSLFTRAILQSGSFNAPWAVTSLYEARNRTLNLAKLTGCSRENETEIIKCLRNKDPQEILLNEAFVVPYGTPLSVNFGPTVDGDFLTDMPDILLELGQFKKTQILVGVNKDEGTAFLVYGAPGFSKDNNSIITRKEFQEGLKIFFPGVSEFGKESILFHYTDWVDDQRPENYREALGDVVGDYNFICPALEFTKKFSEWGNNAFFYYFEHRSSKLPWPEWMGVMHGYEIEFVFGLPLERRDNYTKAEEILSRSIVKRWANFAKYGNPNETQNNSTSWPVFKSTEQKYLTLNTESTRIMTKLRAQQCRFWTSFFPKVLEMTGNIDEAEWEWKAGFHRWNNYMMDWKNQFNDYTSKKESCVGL

[3] = DPPH free radical scavenging
Staphylococcus aureus = assay: Anti-bacterial activity, agar well diffusion; format: cell-based; conditions: for MIC: read-out: MIC, Staphylococcus aureus; for zone of inhibition at 10 µg/mL / zone of inhibition at 20 µg/mL / zone of inhibition at 30 µg/mL: read-out: ZI (Zone of inhibition), Staphylococcus aureus
Acetylcholinesterase = Acetylcholinesterase (Homo sapiens, UniProt P22303); assay: biochemical; conditions: for inhibition at 125 µg/mL / inhibition at 250 µg/mL / inhibition at 500 µg/mL / inhibition at 1000 µg/mL: read-out: %AChE Inhibition (mean ± SEM)
Chain of Acetylcholinesterase (P22303 32-614, species assumed): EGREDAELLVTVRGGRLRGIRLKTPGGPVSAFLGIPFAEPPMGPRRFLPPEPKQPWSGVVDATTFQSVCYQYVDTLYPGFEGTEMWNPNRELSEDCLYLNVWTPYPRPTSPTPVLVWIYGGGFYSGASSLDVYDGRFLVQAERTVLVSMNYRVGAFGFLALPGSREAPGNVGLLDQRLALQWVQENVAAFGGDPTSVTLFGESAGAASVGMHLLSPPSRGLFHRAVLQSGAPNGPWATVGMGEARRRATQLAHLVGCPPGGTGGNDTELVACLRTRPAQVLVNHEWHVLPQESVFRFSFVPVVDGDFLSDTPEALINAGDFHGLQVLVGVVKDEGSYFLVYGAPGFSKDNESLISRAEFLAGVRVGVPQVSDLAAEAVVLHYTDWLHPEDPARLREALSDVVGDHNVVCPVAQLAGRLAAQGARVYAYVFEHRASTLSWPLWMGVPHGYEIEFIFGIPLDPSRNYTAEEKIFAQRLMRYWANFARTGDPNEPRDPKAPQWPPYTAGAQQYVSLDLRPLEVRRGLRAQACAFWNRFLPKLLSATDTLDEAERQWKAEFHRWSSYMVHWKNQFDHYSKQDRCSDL

glucose-6-phosphatase = target: T1, glucose-6-phosphatase (Homo sapiens, UniProt P35575); assay: Glucose-6-phosphatase activity; format: biochemical; conditions: for Total Activity of glucose-6-phosphatase: 33°C, pH 6.7, control 72.0
T1 sequence (P35575 1-357): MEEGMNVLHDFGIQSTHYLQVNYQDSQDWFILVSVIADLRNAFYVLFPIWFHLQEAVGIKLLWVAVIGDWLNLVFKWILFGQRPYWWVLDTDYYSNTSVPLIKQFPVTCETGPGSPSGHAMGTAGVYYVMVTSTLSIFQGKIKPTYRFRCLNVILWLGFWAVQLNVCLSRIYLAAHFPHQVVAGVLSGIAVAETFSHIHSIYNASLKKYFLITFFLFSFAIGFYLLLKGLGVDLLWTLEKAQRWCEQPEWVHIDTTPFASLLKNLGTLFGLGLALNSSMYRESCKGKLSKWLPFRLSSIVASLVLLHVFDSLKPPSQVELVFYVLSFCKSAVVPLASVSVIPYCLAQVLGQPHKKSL

porcine α-amylase = target: T2, porcine α-amylase (Sus scrofa, UniProt P00690); assay: biochemical; conditions: for inhibition at 125 µg/mL: read-out: %Inhibition (mean ± SEM), alpha amylase, concentration 125 µg/mL; for inhibition at 250 µg/mL: read-out: %Inhibition (mean ± SEM), alpha amylase, concentration 250 µg/mL; for inhibition at 1000 µg/mL: read-out: %Inhibition (mean ± SEM), alpha amylase, concentration 1000 µg/mL
T2 sequence (P00690 16-511): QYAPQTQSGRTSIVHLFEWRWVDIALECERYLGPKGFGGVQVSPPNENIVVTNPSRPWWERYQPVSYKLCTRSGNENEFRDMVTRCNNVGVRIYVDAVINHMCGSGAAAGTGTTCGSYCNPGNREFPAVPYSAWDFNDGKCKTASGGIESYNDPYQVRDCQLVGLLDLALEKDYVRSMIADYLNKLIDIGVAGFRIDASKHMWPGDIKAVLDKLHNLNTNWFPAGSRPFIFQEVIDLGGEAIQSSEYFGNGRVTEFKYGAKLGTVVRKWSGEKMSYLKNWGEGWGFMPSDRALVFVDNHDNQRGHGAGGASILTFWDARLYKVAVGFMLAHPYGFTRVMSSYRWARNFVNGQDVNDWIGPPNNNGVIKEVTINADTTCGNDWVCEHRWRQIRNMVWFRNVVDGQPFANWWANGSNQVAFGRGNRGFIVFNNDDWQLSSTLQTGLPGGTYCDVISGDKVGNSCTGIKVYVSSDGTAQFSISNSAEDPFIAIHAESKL

## S=C(Nc1ccccc1)NC(c1ccccn1)C(Cc1ccccc1)Cc1ccccc1 (stereo not drawn) [Compound III, 1-(2-benzyl-3-phenyl-1-(pyridine-2-yl)propyl)-3-phenylthiourea]
[1]
  MIC: 11.6 µg/mL (≈ 26.6 µM)
  zone of inhibition at 10 µg/mL: 15 mm
  zone of inhibition at 20 µg/mL: 20 mm
  zone of inhibition at 30 µg/mL: 26 mm
[2]
  ABTS IC50: 80 µg/mL
[2]; concentration 125 μg/mL
  ABTS % I (mean ± S.E.M): 64.77 ±0.087%
[2]; concentration 250 μg/mL
  ABTS % I (mean ± S.E.M): 66.25 ±0.123%
[2]; concentration 500 μg/mL
  ABTS % I (mean ± S.E.M): 68.27 ± 0.532%
[2]; concentration 1000 μg/mL
  ABTS % I (mean ± S.E.M): 69.11 ± 0.234%
Proteus vulgaris
  MIC: 15 µg/mL (≈ 34.2 µM)
  zone of inhibition at 10 µg/mL: 12 mm
  zone of inhibition at 20 µg/mL: 16 mm
  zone of inhibition at 30 µg/mL: 22 mm
Butyrylcholinesterase
  IC50: 183 µM
  inhibition at 125 µg/mL: 58.3 ± 1.06%
  inhibition at 250 µg/mL: 61.8 ± 1.54%
  inhibition at 500 µg/mL: 63.8 ± 1.53%
  inhibition at 1000 µg/mL: 68.5 ± 1.07%
[3]
  DPPH IC50: 79 µg/mL
[3]; concentration 125 μg/mL
  DPPH % I (mean ± S.E.M): 61.14±0.177%
[3]; concentration 250 μg/mL
  DPPH % I (mean ± S.E.M): 64.74 ± 0.267%
[3]; concentration 500 μg/mL
  DPPH % I (mean ± S.E.M): 66.07 ± 0.283%
[3]; concentration 1000 μg/mL
  DPPH % I (mean ± S.E.M): 67.45 ± 0.095%
Staphylococcus aureus
  MIC: 14.9 µg/mL (≈ 34.1 µM)
  zone of inhibition at 10 µg/mL: 15 mm
  zone of inhibition at 20 µg/mL: 16 mm
  zone of inhibition at 30 µg/mL: 19 mm
Acetylcholinesterase
  IC50: 144 µM
  inhibition at 125 µg/mL: 62.2 ± 1.12%
  inhibition at 250 µg/mL: 66.5 ± 2.08%
  inhibition at 500 µg/mL: 75.7 ± 1.15%
  inhibition at 1000 µg/mL: 84.3 ± 1.12%
glucose-6-phosphatase; concentration 125 µg/mL
  Total Activity of glucose-6-phosphatase: 32.04 mg of P released per hour
glucose-6-phosphatase; concentration 250 µg/mL
  Total Activity of glucose-6-phosphatase: 28.35 mg of P released per hour
glucose-6-phosphatase; concentration 500 µg/mL
  Total Activity of glucose-6-phosphatase: 27.10 mg of P released per hour
Porcine α-amylase
  IC50: 263 µM
  inhibition at 125 µg/mL: 50.1 ± 2.11%
  inhibition at 250 µg/mL: 62.5 ± 1.24%
  inhibition at 1000 µg/mL: 65.8 ± 1.13%
Porcine α-amylase; concentration 250 μg/mL
  %Inhibition (mean ± SEM), alpha amylase: 57.91 ± 0.43%

## Fc1ccccc1NC(=S)Nc1ccccc1 [Compound V, 1-(2-fluorophenyl)-3-phenylthiourea]
[1]
  MIC: 11.6 µg/mL (≈ 47.1 µM)
  zone of inhibition at 10 µg/mL: 15 mm
  zone of inhibition at 20 µg/mL: 20 mm
  zone of inhibition at 30 µg/mL: 25 mm
[2]
  ABTS IC50: 85 µg/mL
[2]; concentration 125 μg/mL
  ABTS % I (mean ± S.E.M): 69.45 ± 1.29%
[2]; concentration 250 μg/mL
  ABTS % I (mean ± S.E.M): 71.14 ± 1.90%
[2]; concentration 500 μg/mL
  ABTS % I (mean ± S.E.M): 73.18 ± 1.46%
[2]; concentration 1000 μg/mL
  ABTS % I (mean ± S.E.M): 75.04 ± 0.10%
Proteus vulgaris
  MIC: 8.94 µg/mL (≈ 36.3 µM)
  zone of inhibition at 10 µg/mL: 16 mm
  zone of inhibition at 20 µg/mL: 21 mm
  zone of inhibition at 30 µg/mL: 24 mm
Butyrylcholinesterase
  IC50: 406 µM
  inhibition at 125 µg/mL: 53.07 ± 0.48%
  inhibition at 250 µg/mL: 55.1 ± 1.04%
  inhibition at 500 µg/mL: 59.1 ± 1.76%
  inhibition at 1000 µg/mL: 62.7 ± 1.22%
[3]
  DPPH IC50: 70 µg/mL
[3]; concentration 125 μg/mL
  DPPH % I (mean ± S.E.M): 68.83 ± 1.53%
[3]; concentration 250 μg/mL
  DPPH % I (mean ± S.E.M): 70.55 ± 1.27%
[3]; concentration 500 μg/mL
  DPPH % I (mean ± S.E.M): 71.50 ± 1.61%
[3]; concentration 1000 μg/mL
  DPPH % I (mean ± S.E.M): 73.14 ± 1.10%
Staphylococcus aureus
  MIC: 24.1 µg/mL (≈ 97.9 µM)
  zone of inhibition at 10 µg/mL: 12 mm
  zone of inhibition at 20 µg/mL: 14 mm
  zone of inhibition at 30 µg/mL: 16 mm
Acetylcholinesterase
  IC50: 739 µM
  inhibition at 125 µg/mL: 51.8 ± 1.72%
  inhibition at 250 µg/mL: 56.3 ± 2.14%
  inhibition at 500 µg/mL: 68.2 ± 1.25%
  inhibition at 1000 µg/mL: 70.2 ± 1.09%
glucose-6-phosphatase; compared to control experiments
  Glucose-6-phosphatase inhibition, in words: most potent inhibitors
glucose-6-phosphatase; concentration 125 µg/mL
  Total Activity of glucose-6-phosphatase: 05.66 mg of P released per hour
glucose-6-phosphatase; concentration 250 µg/mL
  Total Activity of glucose-6-phosphatase: 05.21 mg of P released per hour
glucose-6-phosphatase; concentration 500 µg/mL
  Total Activity of glucose-6-phosphatase: 04.16 mg of P released per hour
Porcine α-amylase
  IC50: 406 µM
  inhibition at 125 µg/mL: 52.1 ± 2.11%
  inhibition at 250 µg/mL: 55.91 ± 0.43%
  inhibition at 1000 µg/mL: 62.8 ± 1.13%
Porcine α-amylase; read-out: %Inhibition (mean ± SEM), alpha amylase, concentration 500 µg/mL
  inhibition at 500 µg/mL: 59.5 ± 1.24%

## COc1ccc2c3c1O[C@H]1C[C@@H](O)C=C[C@@]31CCN(C)C2 [Galantamine, reference compound]
Butyrylcholinesterase; concentration 500 μg/mL
  %BChE Inhibition (mean ± SEM): 87.16 ± 1.23%
Butyrylcholinesterase
  inhibition at 125 µg/mL: 64.8 ± 0.73%
  inhibition at 1000 µg/mL: 92.3 ± 0.74%

From publication PMC6789174 (Drug Design, Development and Therapy, 2019)
